Assay results from patent publication US9469616B2, “Cyclic compounds and methods of making and using the same” (Cellceutix Corporation, priority 2011, dated 2016).
≈ marks a conversion by molar mass, not a printed value.

Legend:
Format in all cases: cell-based
S. aureus (27660) = assay: MIC assay (Table 1); details: Staphylococcus aureus, isolate 27660
K. pneumoniae (13883) = assay: MIC assay (Table 1); details: Klebsiella pneumoniae, isolate 13883, read-out: MIC50 K. Pnuemnoiae
Method: (§1) The compounds are screened for antimicrobial activity against a number of clinically relevant pathogens. Minimum Inhibitory Concentrations (MIC) of each of the compounds are determined using standard procedures for clinical ocular isolates of Ciprofloxacin Susceptible (CS) S. aureus (CSSA), Ciprofloxacin Resistant (CR) S. aureus (CRSA), CS S. epidermidis (CSSE), CR S. epidermidis (CRSE), St. pneumoniae (SP), St. viridans group (SV), Moraxella Species (MS) (including Moraxella catarrhalis), H. influenzae (HI), P. aeruginosa (PA), Serratia marcescens (SM), S. aureus fluoroquinolone-susceptible, S. aureus fluoroquinolone-resistant, S. epidermidis (Coagulase-negative Staphylococcus) fluoroquinolone-susceptible, S. epidermidis (Coagulase-negative Staphylococcus) fluoroquinolone-resistant, and Serratia marcescens.
(§2) On the day of testing, a 640 μg/m (1280 μg/m for Serratia marcescens and Pseudomonas aeruginosa) concentration is prepared from a 1% stock solution in 0.01% acetic acid, 0.2% BSA in polypropylene tubes.
(§3) Ten μl of diluted 10× test agents is added to each well of one row of the 96 well polypropylene plates from column 2 to column 12 (column 1 is a control for bacteria alone, with no peptide). […] The same peptide is in each of the 8 rows. One plate contains dilutions of one test agent and 8 bacterial isolates.
(§4) Ninety μl of the bacterial suspensions is dispensed in each well from column 1 to column 12. Each bacterial isolate is placed in one row of a 96 well polypropylene plate containing the test agents. The plates are placed on shaker at 15 minutes at room temperature, and then incubated at 37° C. overnight. MICs are determined visually as the lowest concentration of drug that inhibits visible bacterial growth.
(§5) Data is expressed as MIC50 in μg/ml. The bacterial isolates were as follows: E. coli (25922); S. aureus (27660); E. faecalis (29212); P. aeruginosa (10145); and K. pneumoniae (13883).

E. faecalis (29212) = assay: MIC assay (Table 1); details: Enterococcus faecalis, isolate 29212
Method: as §1, §2, §3, §4, §5

NIH/3T3 cells = assay: Cytotoxicity colorimetric assay; details: Mus musculus, NIH3T3, 1 h, one hour incubation in serum-free media
Method: Cytotoxicity of the compounds are evaluated in a colorimetric assay using a transformed human liver cell line (HepG2, HB-8065) and an embryonic mouse cell line (NIH/3T3 cells, CRL-1658). This assay measures the bioreduction of a novel tetrazolium compound to a soluble formazan product by viable cells. HepG2 cells are seeded in 96 well plates at 2×10^4 cells/well in MEM medium with 10% fetal bovine serum (FBS) 24 hours prior to use. NIH/3T3 cells are seeded in 96 well plates at 2×10^4 cells/well in DMEM medium with 10% bovine calf serum (BCS) 24 hours prior to use. Cell monolayers are rinsed in serum-free media and incubated for one hour with a Compound in serum-free media. After incubation, the media is replaced with serum supplemented media and live cells are measured using the Cell Titer 96 Aqueous […] Assay kit (Promega, Madison, Wis.). EC50 values are determined using a four parameter logistic equation: Y=Bottom+(Top−Bottom)/(1+10^((Log EC50−X)*HillSlope)). […] Data is expressed as EC50 in μg/ml. Cytotoxicity is evaluated in a colorimetric assay using a transformed human liver cell line (HepG2, HB-8065) and an embryonic mouse cell line (NIH/3T3 cells, CRL-1658). This assay measures the bioreduction of a novel tetrazolium compound to a soluble formazan product by viable cells. HepG2 cells are seeded in 96 well plates at 3×10^4 cells/well in MEM medium with 10% fetal bovine serum (FBS) 24 hours prior to use. NIH/3T3 cells are seeded in 96 well plates at 2×10^4 cells/well in DMEM medium with 10% bovine calf serum (BCS) 24 hours prior to use. Cell monolayers are rinsed in serum-free media and incubated for one hour with test agent in serum-free media. After incubation, the media is replaced with serum supplemented media and live cells are measured using the Cell Titer 96 Aqueous […] Assay kit (Promega, Madison, Wis.). EC50 values are determined using a four parameter logistic equation: Y=Bottom+(Top−Bottom)/(1+10^((Log EC50−X)*HillSlope)).

HepG2 = assay: Cytotoxicity colorimetric assay; details: Homo sapiens, HepG2, 1 h, one hour incubation in serum-free media
Method: Cytotoxicity of the compounds are evaluated in a colorimetric assay using a transformed human liver cell line (HepG2, HB-8065) and an embryonic mouse cell line (NIH/3T3 cells, CRL-1658). This assay measures the bioreduction of a novel tetrazolium compound to a soluble formazan product by viable cells. HepG2 cells are seeded in 96 well plates at 2×10^4 cells/well in MEM medium with 10% fetal bovine serum (FBS) 24 hours prior to use. NIH/3T3 cells are seeded in 96 well plates at 2×10^4 cells/well in DMEM medium with 10% bovine calf serum (BCS) 24 hours prior to use. Cell monolayers are rinsed in serum-free media and incubated for one hour with a Compound in serum-free media. After incubation, the media is replaced with serum supplemented media and live cells are measured using the Cell Titer 96 Aqueous […] Assay kit (Promega, Madison, Wis.). EC50 values are determined using a four parameter logistic equation: Y=Bottom+(Top−Bottom)/(1+10^((Log EC50−X)*HillSlope)). Actual results from a representative cytotoxicity assay are shown below in Table 3. Data is expressed as EC50 in μg/ml. Cytotoxicity is evaluated in a colorimetric assay using a transformed human liver cell line (HepG2, HB-8065) and an embryonic mouse cell line (NIH/3T3 cells, CRL-1658). This assay measures the bioreduction of a novel tetrazolium compound to a soluble formazan product by viable cells. HepG2 cells are seeded in 96 well plates at 3×10^4 cells/well in MEM medium with 10% fetal bovine serum (FBS) 24 hours prior to use. NIH/3T3 cells are seeded in 96 well plates at 2×10^4 cells/well in DMEM medium with 10% bovine calf serum (BCS) 24 hours prior to use. Cell monolayers are rinsed in serum-free media and incubated for one hour with test agent in serum-free media. After incubation, the media is replaced with serum supplemented media and live cells are measured using the Cell Titer 96 Aqueous […] Assay kit (Promega, Madison, Wis.). EC50 values are determined using a four parameter logistic equation: Y=Bottom+(Top−Bottom)/(1+10^((Log EC50−X)*HillSlope)).

P. aeruginosa (10145) = assay: MIC assay (Table 1); details: Pseudomonas aeruginosa, isolate 10145
E. coli (25922) = assay: MIC assay (Table 1); details: Escherichia coli, isolate 25922

| SMILES | MIC50 (S. aureus (27660)) | MIC50 (K. pneumoniae (13883)) | MIC50 (E. faecalis (29212)) | EC50 (NIH/3T3 cells) | EC50 (HepG2) | MIC50 (P. aeruginosa (10145)) | MIC50 (E. coli (25922)) |
| --- | --- | --- | --- | --- | --- | --- | --- |
| N=C(N)NCCCOc1cc(-c2cn(-c3cc(OCCCNC(=N)N)cc(OCCCNC(=N)N)c3)nn2)cc(-c2cn(-c3cc(OCCCNC(=N)N)cc(OCCCNC(=N)N)c3)nn2)c1 [Compound 100] | 50 µg/mL (≈ 53.2 µM) | > 50 µg/mL | 25 µg/mL (≈ 26.6 µM) | 23.2 µg/mL (≈ 24.7 µM) | 48.6 µg/mL (≈ 51.7 µM) | > 50 µg/mL | 50 µg/mL (≈ 53.2 µM) |
| NCCCOc1ccc(-n2cc(-c3cccc(-c4cn(-c5ccc(OCCCN)c(OCCCN)c5)nn4)c3)nn2)cc1OCCCN [Compound 101] | 12.5 µg/mL (≈ 19 µM) | > 50 µg/mL | 12.5 µg/mL (≈ 19 µM) | 52.4 µg/mL (≈ 79.8 µM) | – | 50 µg/mL (≈ 76.1 µM) | > 50 µg/mL |
| NCCCOc1cc(OCCCN)cc(-n2cc(-c3ccc4ccc(-c5cn(-c6cc(OCCCN)cc(OCCCN)c6)nn5)cc4c3)nn2)c1 [Compound 102] | 12.5 µg/mL (≈ 17.7 µM) | 50 µg/mL (≈ 70.7 µM) | 25 µg/mL (≈ 35.4 µM) | 36.1 µg/mL (≈ 51.1 µM) | 48.4 µg/mL (≈ 68.5 µM) | > 50 µg/mL | > 50 µg/mL |
| NCCCOc1ccc(-n2cc(-c3ccc4ccc(-c5cn(-c6ccc(OCCCN)c(OCCCN)c6)nn5)cc4c3)nn2)cc1OCCCN [Compound 103] | 25 µg/mL (≈ 35.4 µM) | > 50 µg/mL | 25 µg/mL (≈ 35.4 µM) | 32.7 µg/mL (≈ 46.3 µM) | 55.5 µg/mL (≈ 78.5 µM) | 50 µg/mL (≈ 70.7 µM) | > 50 µg/mL |
| N=C(N)NCCCOc1ccc(-n2cc(-c3ccc4ccc(-c5cn(-c6ccc(OCCCNC(=N)N)c(OCCCNC(=N)N)c6)nn5)cc4c3)nn2)cc1OCCCNC(=N)N [Compound 104] | 25 µg/mL (≈ 28.6 µM) | > 50 µg/mL | 25 µg/mL (≈ 28.6 µM) | 34.7 µg/mL (≈ 39.7 µM) | 54 µg/mL (≈ 61.7 µM) | 50 µg/mL (≈ 57.1 µM) | > 50 µg/mL |
| NCCCOc1cc(-c2cn(-c3cc(OCCCN)cc(OCCCN)c3)nn2)cc(-c2cn(-c3cc(OCCCN)cc(OCCCN)c3)nn2)c1 [Compound 105] | 25 µg/mL (≈ 34.3 µM) | > 50 µg/mL | > 50 µg/mL | 83.4 µg/mL (≈ 114 µM) | – | 50 µg/mL (≈ 68.5 µM) | 50 µg/mL (≈ 68.5 µM) |
| N=C(N)NCCCOc1cc(-c2cn(-c3cccc(OCCCNC(=N)N)c3)nn2)cc(-c2cn(-c3cccc(OCCCNC(=N)N)c3)nn2)c1 [Compound 106] | 1.56 µg/mL (≈ 2.2 µM) | > 50 µg/mL | 50 µg/mL (≈ 70.4 µM) | 191 µg/mL (≈ 269 µM) | – | 50 µg/mL (≈ 70.4 µM) | 25 µg/mL (≈ 35.2 µM) |
| NCCCOc1cc(-c2cn(-c3cccc(OCCCN)c3)nn2)cc(-c2cn(-c3cccc(OCCCN)c3)nn2)c1 [Compound 107] | 50 µg/mL (≈ 85.7 µM) | > 50 µg/mL | 25 µg/mL (≈ 42.8 µM) | 131 µg/mL (≈ 224 µM) | – | 25 µg/mL (≈ 42.8 µM) | > 50 µg/mL |
